Source: publication PMC5494507, “γ‐Secretase inhibitors in cancer clinical trials are pharmacologically and functionally distinct” (EMBO Molecular Medicine, 2017)
“Also recorded” adds a separate entry of the source. Like-named read-outs stand apart in the source and are kept apart here. Each block holds one compound with its values, some of them ahead of it.

Experiments:
Aβ40 = tested on: Aβ40; set-up: method as in ref Appendix Table S1 (Gavai et al, 2015; Dovey et al, 2001; Cook et al, 2010; Krop et al, 2012; Wei et al, 2010; Luistro et al, 2009; Mitani et al, 2012); details: ref Appendix Table S1 (Gavai et al, 2015; Dovey et al, 2001; Cook et al, 2010; Krop et al, 2012; Wei et al, 2010; Luistro et al, 2009; Mitani et al, 2012); read-out: Reported IC50s Aβ40; cited from earlier work
cNOTCH1sub = test: Cell-based γ-secretase cleavage assay, cNOTCH1sub in H4 cells (Aβ-like peptide ELISA); set-up: species or system human; details: Aβ-like peptide in media, GSI overnight
Procedure: (§1) Using these cell‐based γ‐secretase cleavage assays, we systematically investigated the substrate inhibition profile of BMS‐906024, MK‐0752, PF‐308414, RO4929097, Semagacestat, and DAPT. We treated H4 cells stably expressing cNOTCH1‐4sub with 4 pM to 10 μM of GSIs (Fig 5A and Table 2) and measured the Aβ‐like peptide secreted into the media.
(§2) For the cell‐based assay, all substrates contain a human NOTCH4 signal peptide sequence ([…]), amyloid β peptide (Aβ1–25/K16A) epitope tag followed by the juxtamembrane region (JMD) of the given substrate and a FLAG tag ([…]) at the COOH‐terminal. K16A mutant was created to decrease potential α‐secretase cleavage. The cDNAs were generated by gene synthesis conducted by Genscript. A schematic representation of the substrates is provided in Fig 4A, and sequences of the cDNAs and the proteins are provided in Appendix Fig S6. For clarity, these substrates are referred to as cell‐based assay substrates (e.g., NOTCH1 is cNOTCH1sub). Substrate cDNAs were cloned into pCDNA3.1 (Invitrogen, Carlsbad, CA, USA) for expression in H4 cells (ATCC, Manassas, VA).
(§3) H4 cells were cultured in Opti‐mem media (Thermo‐Fisher) supplemented with Hyclone 6% fetal bovine serum (GE, Logan, Utah, USA) and 1% penicillin/streptomycin (Life Technologies, Grand Island, NY, USA). pCDNA3.1 plasmids containing the substrate cDNAs were transfected into H4 cells using FuGENE HD reagent (Madison, WI, USA). Stable cell lines were established using G418 selection. […] Cells and conditioned media were used for WB, IP, and ELISA.
(§4) Sandwich ELISAs used for Aβ detection were performed as previously described (Murphy et al, 1999; Ran et al, 2014). Briefly, Aβ and Aβ‐like peptides in conditioned media were captured with Ab5 antibody and detected with horseradish peroxidase labeled mAb 4G8 (Biolegend). Synthetic Aβ1‐40 was used as standard. All ELISAs were developed with TMB substrate (KPL, Gaithersburg, Maryland, USA). Bis‐Tris precast gels (Biorad, Hercules, CA, USA) were used for all SDS–PAGE. Monoclonal anti‐FLAG M2 antibody (Sigma) and Aβ1‐16 antibody 6E10 (Covance) were used for Western blotting at 1:1,000 dilution. Anti‐CD74 In‐1 antibody (BD Bioscience, San Jose, CA, USA) was used for A20 cell lysate Western blotting at dilution of 1:1,000. MDA‐MB‐231 cell extracts were prepared by lysing cells in RIPA buffer containing protease and phosphatase inhibitors. The lysates were kept on ice for 30 min and vortexed every 10 min, and then centrifuged at 4°C for 10 min at 1,000 g. The supernatants were collected, and protein concentrations were determined by Bradford Assay. Pan‐NOTCH1 antibody (C‐20) (Santa Cruz Biotechnology) and cleaved NOTCH1 (Val1744) antibody (Developmental Studies Hybridoma Bank) were used at 1:500 and 1:100 dilution in the test of endogenous NOTCH1 inhibition with β‐actin expression used as loading control. β‐actin antibody was used at 1:1,000 dilution (Sigma). Band intensities normalized for actin using densitometry analysis with ImageJ Software (NIH, USA).

cNOTCH1‐4sub = test: Average of cell-based IC50s on cNOTCH1-4sub in H4 cells; set-up: species or system human; details: read-out: Average IC50s of each GSI on cNOTCH1‐4sub
Procedure: as §1, §2, §3, §4

cAPPC100sub = test: Cell-based γ-secretase cleavage assay, cAPPC100sub stably overexpressing cells (Aβ ELISA)
From the text: (§5) We next tested all GSIs on cAPPC100sub and full‐length APP stably overexpressing cells. […] The low‐dose potentiation of γ‐secretase cleavage was further mechanistically probed using in vitro assays with recombinant substrates and IP‐MS.
as §2, §3, §4

full‐length APP = test: Cell-based γ-secretase cleavage assay, full-length APP stably overexpressing cells (Aβ ELISA)
Procedure: as §5, §3, §4

NOTCH1 = test: Endogenous NOTCH1 cleavage inhibition in MDA-MB-231 cells (NICD Western blot after EDTA activation); format: cell-based; details: MDA-MB-231, 100 nM to 12.5 μM, 1 h pretreatment then 5 mM EDTA 5 min
Procedure: (§6) To extend the study to a more physiological system, we assessed endogenous NOTCH1 cleavage inhibition using the triple‐negative breast cancer line MDA‐MB‐231 (Fig 6A). Full‐length blots are shown in source data for Fig 6. NOTCH1 cleavage was detected by Western blotting using the Cell Signaling neo‐epitope NICD antibody. […] The inhibition of endogenous APP in MDA‐MB‐231 cells was also tested by detecting accumulation of APP COOH‐terminal fragments (APP‐CTFs). […] Figure 6D summarized the APP‐CTF band intensities normalized for DMSO group. The original blots are available in source data for Fig 6.
Short‐term endogenous NOTCH1 cleavage inhibition was tested in the triple‐negative breast cancer cell lines MDA‐MB‐231 (ATCC, Manassas, VA). Cells were plated in 60 mm dishes and maintained as monolayer cultures in DMEM medium supplemented with 10% FBS, 1% penicillin/streptomycin, 1% L‐glutamine (Life Technologies), and incubated at 37°C in a humidified 5% CO2 incubator. After the cells reached ~75% confluency, cultures were pretreated with GSIs for 1 h in DMEM at 37°C in a 5% CO2 incubator. GSIs were tested at concentrations of 0, 0.1, 0.5, 2.5, and 12.5 μM. Then, EDTA (5 mM, Life Technologies) was added to the cell cultures to induce Notch activation for 5 min. Following incubation, cell extracts were prepared by lysing cells in RIPA buffer (Santa Cruz Biotechnology) containing protease and phosphatase inhibitors. Western blotting was performed using Cleaved NOTCH1 (Val1744) antibody (Cell Signaling) with β‐actin (Santa Cruz Biotechnology) as loading control. Band intensities were normalized for actin using ImageJ Software (NIH, USA).
as §4

[1] = tested on: cNOTCH1‐4sub and cAPPC100sub; test: Substrate accumulation in H4 cells stably expressing cNOTCH1-4sub and cAPPC100sub (Western blot); format: cell-based, human; details: for substrate accumulation (Western blot), other GSIs tried beside DAPT: authors' response, concentration not given
Procedure: In order to enable us to more definitively characterize the effects of various GSIs on different substrates, we generated H4 cells stably expressing cNOTCH1‐4sub and cAPPC100sub (Fig 4A). Chimeric substrates were detected by WB using anti‐FLAG antibody (Fig 4B). Multiple CTFs are detectable as well as potential dimers for all substrates. Multiple NTF are also detectable using anti‐Aβ 6E10 antibody (Appendix Fig S2) for cNOTCH1, 3, and 4 substrates.
as §3
as §4, with “Pan‐NOTCH1 antibody (C‐20) (Santa Cruz Biotechnology) and cleaved NOTCH1 (Val1744) antibody (Developmental Studies Hybridoma Bank) were used at 1:500 and 1:100 dilution in the test of endogenous NOTCH1 inhibition with β‐actin expression used as loading control. β‐actin antibody was used at 1:1,000 dilution (Sigma). Band intensities normalized for actin using densitometry analysis with ImageJ Software (NIH, USA).” left out

cNOTCH4sub = test: Cell-based γ-secretase cleavage assay, cNOTCH4sub in H4 cells (Aβ-like peptide ELISA); set-up: species or system human; details: Aβ-like peptide in media, GSI overnight
Procedure: as §1, §2, §3, §4

cNOTCH2sub = cNOTCH2sub (Homo sapiens, UniProt P49768); test: Cell-based γ-secretase cleavage assay, cNOTCH2sub in H4 cells (Aβ-like peptide ELISA); details: rank among the six GSIs, number in brackets
Procedure: as §1, §2, §3, §4

APP = test: Endogenous APP-CTF accumulation in MDA-MB-231 cells (Western blot); format: cell-based
Procedure: as §6
Values are mean ± SD of three tests. • APP‐CTF Western blot of MDA‐MB‐231 cells treated with indicated concentration of GSIs for 16 h. • Band intensities of APP‐CTF with 0.1 μM GSIs were normalized for DMSO control group. Values are mean ± SD of three tests. Data information: Original blots are provided as source data. All band intensity data are derived from three independent experiments and are analyzed by one‐way ANOVA using GraphPad Prism6 software. All experiments were repeated three times.Source data are available online for this figure.

cNOTCH3sub = test: Cell-based γ-secretase cleavage assay, cNOTCH3sub in H4 cells (Aβ-like peptide ELISA); set-up: species or system human
Procedure: as §1, §2, §3, §4

SPP = tested on: SPP; set-up: method as in Weihofen et al, 2003; details: concentration up to 100 μM; ref Weihofen et al, 2003; cited from earlier work
γ‐secretase = γ‐secretase (Homo sapiens, UniProt P49768); details: quoted in parentheses in the authors' response, no assay and reference not given; cited from earlier work
[2] = tested on: cNOTCH1‐4sub and cAPPC100sub; test: Secretion of Aβ-like peptides from cNOTCH1-4sub and cAPPC100sub H4 cells (ELISA, IP-MS); format: cell-based, human
Procedure: The secreted Aβ‐like peptides can be detected using Aβ ELISA method.
as §3
(§7) Immunoprecipitation and mass spectrometry of Aβ and Aβ‐like peptides in cell‐free assay or conditioned media were performed as previously described (Ran et al, 2014). Briefly, the peptides were immunoprecipitated using anti‐Aβ Ab5 antibody bound to sheep anti‐mouse IgG magnetic Dynabeads (Life Technologies) and eluted with 0.1% trifluoroacetic acid (TFA) in water. […] Samples were analyzed using a Bruker Microflex LRF‐MALDI‐TOF mass spectrometer.
Sandwich ELISAs used for Aβ detection were performed as previously described (Murphy et al, 1999; Ran et al, 2014). Briefly, Aβ and Aβ‐like peptides in conditioned media were captured with Ab5 antibody and detected with horseradish peroxidase labeled mAb 4G8 (Biolegend). […] The supernatants were collected, and protein concentrations were determined by Bradford Assay. […]

rC100sub and rNOTCH1sub = test: Cell-free γ-secretase assay, rC100sub and rNOTCH1sub (Appendix Fig S1); format: biochemical
Procedure: Although not suited for detailed dose–response studies due to challenges in precise quantification of the cleavage products, we nevertheless conducted several studies to examine how different GSIs affect cleavage in the cell‐free assay. […] We also evaluated a previously reported Notch‐sparing GSI, Avagacestat (BMS‐708163) (Gillman et al, 2010; Albright et al, 2013) using this assay (Appendix Fig S1).
CHAPSO‐solubilized CHO cell membrane was prepared as described in previous report. 25 μg/ml of each substrate was incubated with the membrane (100 μg/ml total protein) in sodium citrate buffer (150 mM, pH 6.5, Roche Complete protease inhibitor added) for 2 h at 37°C. […] The reaction was terminated by placing tubes on ice until immunoprecipitation.
as §7, with “water. COOH‐terminal fragments (CTFs) were immunoprecipitated with anti‐FLAG M2 magnetic beads (Sigma).” for “water.”

IC50 (cNOTCH1sub): 4.9 nM
IC50 (cNOTCH1‐4sub): 191 nM
IC50 (full‐length APP; full-length APP stably overexpressing cells, Aβ ELISA): 32.7 nM
IC50 (cNOTCH4sub): 51.5 nM
rank order of inhibition of cNOTCH2sub (cNOTCH2sub): [6]
IC50 (cNOTCH3sub; Aβ-like peptide in media, GSI overnight, read-out: IC50 cNOTCH3sub): 624 nM
IC50 (cNOTCH3sub; value in parentheses, read-out: IC50 cNOTCH3sub, from curves excluding the Aβ level > 120%): 265 nM
Structure (SMILES): C[C@H](NC(=O)Cc1cc(F)cc(F)c1)C(=O)N[C@H](C(=O)OC(C)(C)C)c1ccccc1 [DAPT]
IC50 (Aβ40): 20 nM
IC50 (cAPPC100sub; stably overexpressing cells, Aβ ELISA, read-out: IC50 cC100sub): 360 nM
IC50 (cAPPC100sub; value in parentheses, read-out: IC50 cC100sub, from curves excluding the Aβ level > 120%): 212 nM
low-dose potentiation of cleavage, APP (full‐length APP; full-length APP overexpressing cells): low‐dose potentiation of cleavage was observed
NICD levels (NOTCH1): did not suppress NICD levels to baseline levels at any concentrations
substrate accumulation (Western blot) ([1]; 1 μM treatment, H4 cells): did not result in significant substrate accumulation except for cAPPC100sub
APP CTF level / accumulation at 100 nM (APP; MDA-MB-231 (231 cells), 100 nM, triplicate): hard to see; also recorded: did not significantly increase CTF level
concentration from which APP‐CTF process is inhibited (APP; MDA-MB-231, 16 h): ≥ 500 nM
effect on cNOTCH3sub cleavage at low concentrations (cNOTCH3sub): potentiate
effect on SPP activity (SPP): no effect

Structure (SMILES): CC(C)C[C@H](NC(=O)[C@H](Cc1ccccc1)C[C@@H](O)[C@H](Cc1ccccc1)NC(=O)OC(C)(C)C)C(=O)N[C@@H](Cc1ccccc1)C(N)=O [L685458]
IC50 (γ‐secretase): 17 nM
substrate accumulation (Western blot), other GSIs tried beside DAPT [1]: only cAPPC100 show some accumulation

Structure (SMILES): C[C@H](NC(=O)[C@@H](O)c1cc(F)cc(F)c1)C(=O)N[C@@H]1C(=O)N(C)c2ccccc2-c2ccccc21 [LY411575, N2‐[(2S)‐2‐(3,5‐difluorophenyl)‐2‐hydroxyethanoyl]‐N1‐[(7S)‐5‐methyl‐6‐oxo ‐6,7‐dihydro‐5H‐dibenzo[b,d]azepin‐7‐yl]‐L‐alaninamide]
Aβ-like peptides in culture media (IP-MS) ([2]; 1 μM): abolished all production
secretion of Aβ-like peptides (ELISA) ([2]; 1 μM applied to cell cultures): almost completely inhibited
substrate accumulation (Western blot), other GSIs tried beside DAPT [1]: only cAPPC100 show some accumulation

Structure (SMILES): NC(=O)[C@@H](CCC(F)(F)F)N(Cc1ccc(-c2ncon2)cc1F)S(=O)(=O)c1ccc(Cl)cc1 [Avagacestat]
inhibition of APP versus Notch cleavage (rC100sub and rNOTCH1sub): inhibit APP and Notch cleavage equivalently
